The values that follow come from patent US7709497B2, “Pyrazolo[3,4-b]pyridine compound, and its use as a PDE4 inhibitor” (Glaxo Group Limited, priority 2004, dated 2010).

For data set [1], the target named is T1, PDE4B (human recombinant) (Homo sapiens, UniProt Q07343).
T1 construct: made in house; host or cells: Saccharomyces cerevisiae strain GL62 (PDE-deficient yeast)
Description: PDE4B inhibition, IMAP Fluorescence Polarisation (FP) assay. The format is biochemical. To be noted: n = 2; accuracy ±about 0.5 log unit; read-out: PDE4B pIC50 (FP assay, mean value) (converted). The text has this: Human recombinant PDE4B, in particular the 2B splice variant thereof (HSPDE4B2B), is disclosed in WO 94/20079 and also M. M. McLaughlin et al., “A low Km, rolipram-sensitive, cAMP-specific phosphodiesterase from human brain: cloning and expression of cDNA, biochemical characterisation of recombinant protein, and tissue distribution of mRNA”, J. Biol. Chem., 1993, 268, 6470-6476. […]
The ability of compounds to inhibit catalytic activity at PDE4B (human recombinant) or PDE4D (human recombinant) can optionally be determined by IMAP Fluorescence Polarisation (FP) assay (IMAP Explorer kit, available from Molecular Devices Corporation, Sunnydale, Calif., USA; Molecular Devices code: R8062) in a 384-well format.
The IMAP FP assay is able to measure PDE activity in an homogenous, non-radioactive assay format. […] Binding of Fl-AMP product to the beads (coated with the immobilised trivalent cations) slows the rotation of the bound Fl-AMP and leads to an increase in the fluorescence polarisation ratio of parallel to perpendicular light. […]
Biological Data obtained for Example 1 and/or Example 1A (i.e. the compound of formula (I)) (PDE4B and PDE4D inhibitory activities, usually as an average of more than one reading) are as follows, based on current measurements only, and using the above or similar or analogous assay methods. […]
A general note: Polarisation of emitted light reports the rotation of a fluorescent probe.

Data set [2] in a line: Systemic exposure after oral administration to rat(s). It counts as in vivo. The conditions noted are these: about 1 mg/kg oral, free base, 10% DMSO and 90% PEG200/water (70:30), preliminary tests. The text has this:
Although the compound of formula (I) or salt thereof may be administered orally, oral administration is not presently thought to be a preferred route of administration.

T1 sequence (Q07343 1-564 isoform Q07343-2): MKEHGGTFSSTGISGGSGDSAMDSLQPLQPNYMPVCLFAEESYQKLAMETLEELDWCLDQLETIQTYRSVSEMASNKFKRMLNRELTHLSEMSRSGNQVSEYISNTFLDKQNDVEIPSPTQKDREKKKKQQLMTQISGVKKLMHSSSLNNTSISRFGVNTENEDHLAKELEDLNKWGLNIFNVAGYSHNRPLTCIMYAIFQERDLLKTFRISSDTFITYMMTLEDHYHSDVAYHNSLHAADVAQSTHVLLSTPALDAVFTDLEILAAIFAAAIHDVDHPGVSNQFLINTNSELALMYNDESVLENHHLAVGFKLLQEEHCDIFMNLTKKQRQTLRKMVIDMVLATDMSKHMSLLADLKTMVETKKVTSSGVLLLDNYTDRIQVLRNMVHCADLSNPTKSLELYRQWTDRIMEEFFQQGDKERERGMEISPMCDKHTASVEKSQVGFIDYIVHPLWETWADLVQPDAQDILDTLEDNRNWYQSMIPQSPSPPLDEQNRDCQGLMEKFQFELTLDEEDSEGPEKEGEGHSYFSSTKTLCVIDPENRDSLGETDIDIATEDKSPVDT

Regarding `CCn1ncc2c(NC3CCN(C(N)=O)CC3)c(C(=O)NCc3ccc(C)c(C)c3)cnc21` [compound of formula (I), 4-{[1-(aminocarbonyl)-4-piperidinyl]amino}-N-[(3,4-dimethylphenyl)methyl]-1-ethyl-1H-pyrazolo[3,4-b]pyridine-5-carboxamide], in data set [1], the IC50 is 676 pM. The “systemic exposure after oral administration” value in data set [2] is recorded as “low systemic exposure”.
